The text below walks through data of US20240358692A1, “TREATMENT OF SCLERODERMA” (Aisa Pharma, Inc., priority 2023, published 2024).

The assay relates to participants with SSc-RP. Briefly: Frequency of weekly symptomatic RP attacks (patient diary), Phase 2a Part A. The conditions noted are these: ITT Part A. The format is in vivo, human. An excerpt: Percent change from baseline evaluation for frequency of weekly RP attacks were or will be used as the primary efficacy variable. The sponsor-developed participant-informed diary will be used to record data. Frequency of weekly RP attacks is defined as the total number of RP attacks divided by the number of days with available diary data within the last 7 days of each dosing period then multiplied by 7. Total number of RP attacks during the last 7 days of screening period divided by the number of days with available data then multiplied by 7 will be used as baseline for the analysis of all periods. The variable will be calculated as follows: […]
Percent change from baseline evaluation for frequency of weekly RP attacks was and will be the primary efficacy endpoint. Frequency of weekly RP attacks is defined as the total number of RP attacks divided by the number of days with available diary data within the last 7 days of each dosing period then multiplied by 7. Total number of RP attacks during the last 7 days of screening period divided by the number of days with available data then multiplied by 7 will be used as baseline for the analysis of all periods.

[1] abbreviates: Tadalafil 5 mg, n=1, Excluding Outliers.
The mark [2] stands for this setting: Tadalafil 5 mg, n=2, by Baseline RCS, second block (RCS >5.0).
The mark [3] stands for this setting: tadalafil 5 mg daily, n=1, excluding outliers, second Baseline RCS subgroup, last 7 days of dosing.

Take `CN1CC(=O)N2[C@H](c3ccc4c(c3)OCO4)c3[nH]c4ccccc4c3C[C@@H]2C1=O` [Tadalafil]: under setting [1], the “Weekly Symptomatic RP Attacks Change from Baseline, Mean” value (shortened to “Weekly Symptomatic RP Attacks Change”) was 6.00; the “Weekly Symptomatic RP Attacks Percent Change from Baseline, Mean” value came to 50.00%; the “Weekly Symptomatic RP Attacks, Mean” value is on record as 18.00. Besides, under setting [2], the “Weekly Symptomatic RP Attacks Change” value is given as 4.50; the “Weekly Symptomatic RP Attacks Percent Change from Baseline, Mean” value is on record as 62.50%; the “Weekly Symptomatic RP Attacks, Mean” value is on record as 12.50. Under setting [3], the “Weekly Symptomatic RP Attacks Change” value is 6.00; the “Weekly Symptomatic RP Attacks Percent Change from Baseline, Mean” value is 50.00%; the “Weekly Symptomatic RP Attacks, Mean” value was 18.00.
